In one data set the target is 5-HT1A receptor (Sus scrofa, UniProt A0A4X1UTF5). Description: Displacement of [3H]8-OH-DPAT binding to 5-hydroxytryptamine 1A receptor from pig cortex. (In general: Loss of bound radioactivity is the signal in a displacement assay; it reports binding, not function.)
Data set [1] deals with 5-hydroxytryptamine receptor 2A (Rattus norvegicus, UniProt P14842). Description: Displacement of [3H]DOB binding to 5-hydroxytryptamine 2A receptor from rat cortex homogenate.
The target in data set [2] is 5-hydroxytryptamine receptor 1D (Sus scrofa, UniProt P79400). The data set can be described thus: Displacement of [3H]5-HT binding to 5-hydroxytryptamine 1D receptor from pig caudate membrane.
For data set [3], the species on record is Oryctolagus cuniculus. The data set can be described thus: Ability to contract saphenous vein of New Zealand white rabbit. It is filed as functional.
Data set [4] deals with T1, Serotonin 3 (5-HT3) receptor (Rattus norvegicus, UniProt P35563+Q9JJ16).
T1 sequence (P35563 whole entry): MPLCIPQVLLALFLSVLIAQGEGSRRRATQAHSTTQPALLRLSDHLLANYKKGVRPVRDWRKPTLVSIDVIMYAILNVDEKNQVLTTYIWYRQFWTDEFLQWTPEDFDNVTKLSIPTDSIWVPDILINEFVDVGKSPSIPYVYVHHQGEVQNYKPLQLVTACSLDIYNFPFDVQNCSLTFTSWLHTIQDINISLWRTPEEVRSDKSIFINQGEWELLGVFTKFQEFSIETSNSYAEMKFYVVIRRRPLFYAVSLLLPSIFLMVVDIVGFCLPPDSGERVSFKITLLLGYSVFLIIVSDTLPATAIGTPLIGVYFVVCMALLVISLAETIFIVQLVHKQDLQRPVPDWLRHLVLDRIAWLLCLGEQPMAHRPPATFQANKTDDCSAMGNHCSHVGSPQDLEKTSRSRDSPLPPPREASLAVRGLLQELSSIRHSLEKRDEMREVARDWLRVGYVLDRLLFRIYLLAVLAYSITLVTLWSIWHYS
T1 sequence (Q9JJ16 whole entry): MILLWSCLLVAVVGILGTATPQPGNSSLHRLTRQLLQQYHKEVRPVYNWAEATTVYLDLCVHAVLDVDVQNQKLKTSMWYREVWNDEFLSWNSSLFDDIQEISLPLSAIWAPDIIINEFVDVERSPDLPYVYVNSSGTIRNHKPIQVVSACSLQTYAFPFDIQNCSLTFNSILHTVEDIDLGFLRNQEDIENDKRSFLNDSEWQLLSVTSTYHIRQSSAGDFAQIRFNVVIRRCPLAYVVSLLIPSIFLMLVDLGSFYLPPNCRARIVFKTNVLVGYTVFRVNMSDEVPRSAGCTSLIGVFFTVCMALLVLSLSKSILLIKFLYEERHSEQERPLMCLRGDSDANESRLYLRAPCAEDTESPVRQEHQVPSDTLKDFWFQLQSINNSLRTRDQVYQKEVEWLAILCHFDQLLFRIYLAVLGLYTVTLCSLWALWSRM
Description: Displacement of [3H]-Q-ICS 205-930 binding to 5-hydroxytryptamine 3 receptor from rat cortex homogenate.

Data set [5] can be described thus: Partition coefficient at pH 7.4. It counts as physicochemical. The settings on record: octanol/water.
Data set [6] is filed under the species Oryctolagus cuniculus. Description: Ability to contract saphenous vein of New Zealand white rabbit. It is filed as functional.

The results in this text go back to ChEMBL document CHEMBL1127459, “Synthesis and biological activity of 3-[2-(dimethylamino)ethyl]-5-[(1,1-dioxo-5-methyl-1,2,5-thiadiazolidin- 2-yl)-methyl]-1H-indole and analogues: agonists for the 5-HT1D receptor” (J Med Chem, 1994).

Chain of 5-hydroxytryptamine receptor 2A (P14842 whole entry): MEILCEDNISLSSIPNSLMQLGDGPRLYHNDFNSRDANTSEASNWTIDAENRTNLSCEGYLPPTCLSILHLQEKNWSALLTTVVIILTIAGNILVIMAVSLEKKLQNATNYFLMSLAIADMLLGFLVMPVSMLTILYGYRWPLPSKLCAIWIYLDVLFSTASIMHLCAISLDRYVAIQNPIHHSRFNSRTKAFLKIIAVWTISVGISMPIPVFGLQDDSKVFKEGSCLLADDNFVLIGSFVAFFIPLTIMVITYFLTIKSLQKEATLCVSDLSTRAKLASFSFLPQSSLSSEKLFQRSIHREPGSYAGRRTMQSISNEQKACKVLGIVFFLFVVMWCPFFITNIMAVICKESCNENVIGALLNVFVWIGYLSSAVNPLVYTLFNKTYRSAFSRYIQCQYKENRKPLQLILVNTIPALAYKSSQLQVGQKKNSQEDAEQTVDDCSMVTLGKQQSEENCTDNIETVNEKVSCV
Chain of 5-hydroxytryptamine receptor 1D (P79400 whole entry): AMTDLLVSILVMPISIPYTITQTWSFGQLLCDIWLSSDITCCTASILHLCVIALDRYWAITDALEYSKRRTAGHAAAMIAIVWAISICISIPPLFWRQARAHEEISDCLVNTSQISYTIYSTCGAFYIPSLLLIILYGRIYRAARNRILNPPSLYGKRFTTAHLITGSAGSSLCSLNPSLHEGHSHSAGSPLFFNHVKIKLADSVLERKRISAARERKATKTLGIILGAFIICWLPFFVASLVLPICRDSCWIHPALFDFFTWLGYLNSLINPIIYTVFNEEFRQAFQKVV

Turning to `CN1CCN(Cc2ccc3scc(CCN)c3c2)S1(=O)=O`, the IC50 – broadly, the concentration at which inhibition is half-maximal – was 2000 nM on 5-HT1A receptor, 2 µM in data set [1] and 398 nM in data set [2]. A half-maximal effect in the data set listed under Oryctolagus cuniculus [3] (EC50) was put at 12600 nM.
As to `CN(C)CCc1c[nH]c2ccc(CN3CCN(C)S3(=O)=O)cc12`, the IC50 is 794 nM at 5-HT1A receptor, greater than 10 µM in data set [1], 63.1 nM in data set [2] and greater than 10 µM in data set [4]. The logD (in general, lipophilicity at a set pH, counting ionised and neutral species) in data set [5] is -0.68. Also, in the data set filed under Oryctolagus cuniculus [3], the EC50 (usually the midpoint of the concentration-response curve) is 631 nM.
With `CN(C)CCc1c[nH]c2ccc(CN3CCCN(C)S3(=O)=O)cc12`, the IC50 on 5-HT1A receptor is 126 nM; in data set [1], greater than 10 µM; in data set [2] it was 63.1 nM; in data set [4] it was greater than 10 µM. Moreover, the logD in data set [5] was -0.02. This molecule showed an EC50 in the data set filed under Oryctolagus cuniculus [6] of 2510 nM.
As to `CN(C)CCc1c[nH]c2ccc(CCN3CCNS3(=O)=O)cc12`, the IC50 on 5-HT1A receptor was 126 nM; in data set [1] it was 5.01 µM; in data set [2], 39.8 nM.
In the case of `CN(C)CCc1c[nH]c2ccc(N3CCN(C)S3(=O)=O)cc12`, the values for the IC50 (at 5-HT1A receptor; in data set [1]; in data set [2]) were 631 nM, greater than 10 µM and 100 nM, respectively. In data set [5], this molecule yielded a logD of -0.92. Further, in the data set filed under Oryctolagus cuniculus [3], the EC50 was 3160 nM.
In the case of `CN(C)CCc1c[nH]c2ccc(CN3C(C)(C)CNS3(=O)=O)cc12`, the results for the IC50 (at 5-HT1A receptor; in data set [1]; in data set [2]) were 1000 nM, greater than 10 µM and 200 nM, respectively. The molecule further displayed a logD in data set [5] of -0.78. This molecule also showed an EC50 in the data set filed under Oryctolagus cuniculus [6] of 6310 nM.
`CNS(=O)(=O)Cc1ccc2[nH]cc(CCN(C)C)c2c1`: the 50% inhibitory concentration (IC50) on 5-HT1A receptor is 501 nM; in data set [4] it was greater than 10 µM.
On to `CCN1CCN(CCc2ccc3[nH]cc(CCN(C)C)c3c2)S1(=O)=O`, for which the IC50 on 5-HT1A receptor is 126 nM; in data set [1], 2 µM; in data set [2], 39.8 nM. Besides, a half-maximal response in the data set listed under Oryctolagus cuniculus [3] (EC50) required 1580 nM.
With `CNCCc1c[nH]c2ccc(CN3CCN(C)S3(=O)=O)cc12`, the IC50 at 5-HT1A receptor is 794 nM; in data set [1], greater than 10 µM; in data set [2], 100 nM. The logD in data set [5] was -1.71. In the data set filed under Oryctolagus cuniculus [6], this molecule showed an EC50 of 2000 nM.
In the same order, the values of `CC(=O)Nc1ccc(CN2CCN(Cc3ccc4[nH]cc(CCN(C)C)c4c3)S2(=O)=O)cc1` are 200 nM, 7.94 µM, 20 nM, 0.42 and 501 nM.
Take `CC(C)N1CCN(Cc2ccc3[nH]cc(CCN(C)C)c3c2)S1(=O)=O`: the values for the IC50 (at 5-HT1A receptor; in data set [1]; in data set [2]) were 501 nM, greater than 10 µM and 100 nM, respectively. In data set [5], the logD was 0.16.
On to `CN1CCN(Cc2ccc3[nH]cc(CCN)c3c2)S1(=O)=O`, for which the IC50 at 5-HT1A receptor was 631 nM; in data set [1], greater than 10 µM; in data set [2] it was 316 nM.
For the molecule `CN(C)CCc1c[nH]c2ccc(CCN3CCN(C)S3(=O)=O)cc12`, the IC50 on 5-HT1A receptor is 200 nM; in data set [1], 2.51 µM; in data set [2] it was 39.8 nM. Moreover, in data set [5], the logD is -0.57. Moreover, the EC50 in the data set filed under Oryctolagus cuniculus [6] was 1580 nM.
Take `CN(C)CCc1c[nH]c2ccc(CN3CCNS3(=O)=O)cc12`: the IC50 on 5-HT1A receptor is 794 nM; in data set [1], greater than 10 µM; in data set [2] it was 100 nM. Besides, in data set [5], the logD is -0.97. Also, it took 2510 nM to reach a half-maximal effect in the data set listed under Oryctolagus cuniculus [3] (EC50).
On to `CN(C)CCc1c[nH]c2ccc(N3CCN(Cc4ccccc4)S3(=O)=O)cc12`, for which the IC50 was 79.4 nM at 5-HT1A receptor, 5.01 µM in data set [1] and 20 nM in data set [2].
As to `CN(C)CCc1c[nH]c2ccc(CN3CC(C)(C)NS3(=O)=O)cc12`, the concentration for half-maximal inhibition (IC50) on 5-HT1A receptor was 251 nM; in data set [1], greater than 10 µM; in data set [2], 100 nM. In data set [5], this molecule gave a logD of -0.39. Also, the EC50 in the data set filed under Oryctolagus cuniculus [6] is 2510 nM.
